What was measured:
Format in all cases: functional, cell-based
[1] = target: T1, ATP-dependent translocase ABCB1 (Homo sapiens, UniProt P08183); test: TP_TRANSPORTER: increase in Daunomycin intracellular accumulation (Daunomycin: 0.05 uM, Benzylisothiocyanate: 100 uM) in MCF-7/ADR cells; conditions: nci/adr-res
[2] = target: T1, ATP-dependent translocase ABCB1; test: TP_TRANSPORTER: increase in Daunomycin intracellular accumulation (Daunomycin: 0.05 uM, NITC: 100 uM) in MCF-7 ADR cells; conditions: nci/adr-res
[3] = target: T2, Multidrug resistance-associated protein 1 (Homo sapiens, UniProt P33527); test: TP_TRANSPORTER: increase in Daunomycin intracellular accumulation (Daunomycin: 0.05 uM, NITC: 100 uM) in PANC-1 cells; conditions: panc-1, 100 µM
T2 sequence (P33527 whole entry): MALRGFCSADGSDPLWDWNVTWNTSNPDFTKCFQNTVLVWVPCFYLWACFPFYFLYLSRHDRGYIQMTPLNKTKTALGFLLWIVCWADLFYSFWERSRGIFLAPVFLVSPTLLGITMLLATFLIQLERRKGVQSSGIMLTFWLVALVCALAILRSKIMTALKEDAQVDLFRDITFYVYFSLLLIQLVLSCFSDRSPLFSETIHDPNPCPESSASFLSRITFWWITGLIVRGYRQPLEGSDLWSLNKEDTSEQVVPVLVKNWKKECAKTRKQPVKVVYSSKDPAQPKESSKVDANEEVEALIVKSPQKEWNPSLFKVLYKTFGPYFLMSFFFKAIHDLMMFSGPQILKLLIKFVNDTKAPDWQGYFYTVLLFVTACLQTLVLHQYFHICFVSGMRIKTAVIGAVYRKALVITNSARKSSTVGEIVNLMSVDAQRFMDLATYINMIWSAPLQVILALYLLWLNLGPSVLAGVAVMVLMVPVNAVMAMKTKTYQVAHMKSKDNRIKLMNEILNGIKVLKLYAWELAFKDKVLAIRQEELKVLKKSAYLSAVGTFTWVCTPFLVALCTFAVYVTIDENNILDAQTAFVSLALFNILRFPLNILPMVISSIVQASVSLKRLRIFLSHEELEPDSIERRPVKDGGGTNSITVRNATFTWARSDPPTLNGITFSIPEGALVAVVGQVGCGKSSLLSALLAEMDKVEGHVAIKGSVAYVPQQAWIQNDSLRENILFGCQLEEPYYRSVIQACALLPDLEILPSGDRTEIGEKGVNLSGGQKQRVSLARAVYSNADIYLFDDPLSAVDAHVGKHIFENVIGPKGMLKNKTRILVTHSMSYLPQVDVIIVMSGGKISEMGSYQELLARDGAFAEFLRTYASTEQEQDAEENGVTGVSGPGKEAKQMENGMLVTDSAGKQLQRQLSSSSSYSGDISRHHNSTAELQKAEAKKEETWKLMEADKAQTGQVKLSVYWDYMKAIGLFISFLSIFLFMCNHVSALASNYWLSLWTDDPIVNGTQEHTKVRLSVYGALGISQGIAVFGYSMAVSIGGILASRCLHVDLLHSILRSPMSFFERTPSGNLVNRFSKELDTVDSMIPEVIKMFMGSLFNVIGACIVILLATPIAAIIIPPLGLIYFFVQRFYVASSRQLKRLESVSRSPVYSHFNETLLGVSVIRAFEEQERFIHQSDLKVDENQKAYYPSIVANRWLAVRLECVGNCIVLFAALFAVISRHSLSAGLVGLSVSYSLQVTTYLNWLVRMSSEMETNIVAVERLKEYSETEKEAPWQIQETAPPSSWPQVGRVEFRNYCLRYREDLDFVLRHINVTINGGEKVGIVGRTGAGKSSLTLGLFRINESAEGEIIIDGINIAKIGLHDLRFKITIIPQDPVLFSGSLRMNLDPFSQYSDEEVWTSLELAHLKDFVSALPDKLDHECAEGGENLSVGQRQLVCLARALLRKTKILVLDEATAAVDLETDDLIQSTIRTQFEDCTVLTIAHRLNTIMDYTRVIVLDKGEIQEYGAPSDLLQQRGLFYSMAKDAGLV

[4] = target: T2, Multidrug resistance-associated protein 1; test: TP_TRANSPORTER: increase in Vinblastine intracellular accumulation (Vinblastine: 0.05 uM, Phenylbutyl isothiocyanate: 100 uM) in PANC-1 cells; conditions: panc-1, 100 µM
[5] = target: T2, Multidrug resistance-associated protein 1; test: TP_TRANSPORTER: increase in Vinblastine intracellular accumulation (Vinblastine: 0.05 uM, Phenylhexyl isothiocyanate: 100 uM) in PANC-1 cells; conditions: panc-1, 100 µM
[6] = target: T1, ATP-dependent translocase ABCB1; test: TP_TRANSPORTER: increase in Vinblastine intracellular accumulation ([…], Phenylhexyl isothiocyanate: 100 uM) in MCF-7/ADR cells; conditions: nci/adr-res
[7] = target: T2, Multidrug resistance-associated protein 1; test: TP_TRANSPORTER: increase in Daunomycin intracellular accumulation (Daunomycin: 0.05 uM, Phenylhexyl isothiocyanate: 100 uM) in PANC-1 cells; conditions: panc-1, 100 µM

T1 sequence (P08183 whole entry): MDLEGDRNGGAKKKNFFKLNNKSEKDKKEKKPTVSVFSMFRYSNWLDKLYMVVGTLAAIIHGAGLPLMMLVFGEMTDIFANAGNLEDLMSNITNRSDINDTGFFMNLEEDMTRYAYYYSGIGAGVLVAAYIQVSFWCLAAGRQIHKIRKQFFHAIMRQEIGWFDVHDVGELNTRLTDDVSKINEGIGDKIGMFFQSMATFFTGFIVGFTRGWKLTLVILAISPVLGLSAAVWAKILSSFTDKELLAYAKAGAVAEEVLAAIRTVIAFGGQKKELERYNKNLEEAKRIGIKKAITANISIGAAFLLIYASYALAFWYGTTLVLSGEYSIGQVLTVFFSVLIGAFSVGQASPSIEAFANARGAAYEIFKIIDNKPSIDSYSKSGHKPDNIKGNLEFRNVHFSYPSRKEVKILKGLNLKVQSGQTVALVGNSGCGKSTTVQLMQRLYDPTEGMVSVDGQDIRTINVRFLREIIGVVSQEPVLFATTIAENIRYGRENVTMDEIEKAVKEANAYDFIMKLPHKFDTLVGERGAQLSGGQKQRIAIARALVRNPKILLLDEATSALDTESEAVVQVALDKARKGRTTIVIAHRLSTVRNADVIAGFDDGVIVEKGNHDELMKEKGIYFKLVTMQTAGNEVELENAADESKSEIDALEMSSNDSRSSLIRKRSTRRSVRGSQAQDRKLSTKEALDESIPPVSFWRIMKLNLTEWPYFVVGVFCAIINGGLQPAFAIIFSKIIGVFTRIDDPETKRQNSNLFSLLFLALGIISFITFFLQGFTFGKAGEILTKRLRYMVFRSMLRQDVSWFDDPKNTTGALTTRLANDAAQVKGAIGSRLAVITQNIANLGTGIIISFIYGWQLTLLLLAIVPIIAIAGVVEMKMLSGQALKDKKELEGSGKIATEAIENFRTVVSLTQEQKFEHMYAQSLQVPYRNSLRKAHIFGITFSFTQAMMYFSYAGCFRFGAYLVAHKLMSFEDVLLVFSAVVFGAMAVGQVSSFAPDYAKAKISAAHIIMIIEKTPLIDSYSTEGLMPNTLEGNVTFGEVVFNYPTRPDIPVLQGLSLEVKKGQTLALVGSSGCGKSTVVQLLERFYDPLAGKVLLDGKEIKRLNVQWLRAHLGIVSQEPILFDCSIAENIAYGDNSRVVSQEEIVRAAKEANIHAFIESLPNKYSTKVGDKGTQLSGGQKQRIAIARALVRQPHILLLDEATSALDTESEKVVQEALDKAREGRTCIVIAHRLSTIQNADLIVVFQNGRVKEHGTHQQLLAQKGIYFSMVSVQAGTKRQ

Q: For `S=C=NCc1ccccc1` [BENZYL ISOTHIOCYANATE], which Activity [1] is on record?
A: The Activity was 2.5 fold.

Q: What does the source list for `S=C=Nc1cccc2ccccc12` [1-NAPHTHYLISOTHIOCYANATE]?
A: Activity [2]: 4 fold; Activity [3]: 3 fold

Q: How did the Activity [4] turn out when `S=C=NCCCCc1ccccc1` [PHENYLBUTYL ISOTHIOCYANATE] was run?
A: The Activity was 2.5 fold.

Q: How did the Activity [5] turn out when `S=C=NCCCCCCc1ccccc1` [PHENYLHEXYL ISOTHIOCYANATE] was run?
A: The Activity was 3 fold.

Q: What about the Activity [6] of the same compound?
A: The Activity was 10 fold.

Q: `S=C=NCCc1ccccc1` [PHENETHYLISOTHIOCYANATE] was tested. Which Activity [7] did it give?
A: The Activity was 2 fold.

— ChEMBL document CHEMBL2074445, “Effect of organic isothiocyanates on the P-glycoprotein- and MRP1-mediated transport of daunomycin and vinblastine” (Pharm Res, 2002)
